The text below walks through data of patent publication US6281356A, “Substituted pyrroles” (Hoffmann-La Roche Inc., priority 2000, dated 2001).

Bounds are passed on as bounds.

This test relates to epithelial breast carcinoma cell line (MDAMB-435). The test can be described thus: Antiproliferative activity (growth inhibition, MTT), epithelial breast carcinoma cell line MDAMB-435. The format is cell-based. The settings on record: Homo sapiens, MDA-MB-435, 120 h, 5 days post drug addition, 0.1% DMSO, read-out: IC50 (growth inhibition of MDAMB-435 cells). On the procedure:
The epithelial breast carcinoma cell line (MDAMB-435) was purchased from ATCC (American Type Cell Culture Collection) and was grown in culture medium as recommended by ATCC. For analysis of the effect of various compounds of formula I on the growth of these cells, the cells were plated at a concentration of 1500 cells/well in a 96 well tissue culture plate ("test plate"). The day after the cells were plated, the compounds to be analyzed were dissolved in 100% DMSO (dimethyl sulfoxide) to yield at 10 mM stock solution. Each compound was diluted in H2 O to 1 mM and was added to triplicate wells in the first row of a 96 well master plate containing medium to yield a final concentration of 40 μM. The compounds were then serially diluted in medium in the "master plate". The diluted compound(s) were then transferred to test plates containing cells. A row of vehicle "control cells" received DMSO. The final concentration of DMSO in each well was 0.1%. 5 days post drug addition, the plate was analyzed as described below.
MTT (3-(4-5 methyl thiazole-2-yl)-2,5-diphenyl tetrazolium bromide; thiazolyl blue) was added to each well to yield a final concentration of 1 mg/ml. The plate was then incubated at 37° C. for 21/2-3 hours. The MTT-containing medium was then removed and 50 μl of 100% ethanol was added to each well to dissolve the formazan. The absorbences were then read using an automated plate reader (Bio-tek microplate reader). IC50 s were calculated using the Reed and Munsch equation, see Am. J. Hygiene Vol. 27 pgs. 493-497,1938.
For `COc1ccc2c(C3=C(c4cn(C)c5cc(N6CCCC6)ccc45)C(=O)NC3=O)cn(C)c2c1` [Example 14g, 3-(6-Methoxy-1-methyl-1H-indol-3-yl)-4-(1-methyl-6-pyrrolidin-1-yl-1H-indol-3-yl)pyrrole-2,5-dione], the IC50 (usually the concentration at which inhibition is half-maximal) stood at 40 nM.
The value for `Cn1cc(C2=C(c3c[nH]c4ccccc34)C(=O)NC2=O)c2ccc(-c3ccco3)cc21` [Example 2i, 3-(6-Furan-2-yl-1-methyl-1H-indol-3-yl)-4-(1H-indol-3-yl)pyrrole-2,5-dione] was 30 nM.
The value for `COc1ccc2c(C3=C(c4cn(C)c5cc(-n6ccnc6)ccc45)C(=O)NC3=O)cn(C)c2c1` [Example 9, 3-(6-Imidazol-1-yl-1-methyl-1H-indol-3-yl)-4-(6-methoxy-1-methyl-1H-indol-3-yl)-pyrrole-2,5-dione] was 60 nM; that for `Cn1cc(C2=C(c3cn(C)c4cc(-n5cccn5)ccc34)C(=O)NC2=O)c2ccccc21` [Example 8d, 3(1-Methyl-1H-indol-3-yl)-4-(1-methyl-6-pyrazol-1-yl-1H-indol-3-yl)pyrrole-2,5-dione] was 30 nM.
The value for `Cn1cc(C2=C(c3c[nH]c4cc(N5CCCC5)ccc34)C(=O)NC2=O)c2ccc([N+](=O)[O-])cc21` [Example 12h, 3-(1-Methyl-6-nitro-1H-indol-3-yl)-4-(6-pyrrolidin-1-yl-1H-indol-3-yl)pyrrole-2,5-dione] was 2 nM.
Regarding `Cn1cc(C2=C(c3cn(C)c4cc(-c5cncnc5)ccc34)C(=O)NC2=O)c2ccccc21` [Example 19, 3-(1-Methyl-1-indol-3-yl)-4-(1-methyl-6-pyrimidin-5-yl-1H-indol-3-yl)pyrrole-2,5-dione], the IC50 was 80 nM.
The value for `Cn1cc(C2=C(c3cn(C)c4cc(N5CCCCC5)ccc34)C(=O)NC2=O)c2ccccc21` [Example 12l, 3-(1-Methyl-1H-indol-3-yl)-4-(1-methyl-6-piperidin-1-yl-1H-indol-3-yl)pyrrole-2,5-dione] was 230 nM; that for `Cn1cc(C2=C(c3cn(C)c4cc(-c5ccco5)ccc34)C(=O)NC2=O)c2ccccc21` [Example 2g, 3-(6-Furan-2-yl-1-methyl-1H-indol-3-yl)-4-(1-methyl-1H-indol-3-yl)pyrrole-2,5-dione] was 20 nM.
The value for `Cn1cc(C2=C(c3cn(C)c4cc([N+](=O)[O-])ccc34)C(=O)NC2=O)c2ccc(-c3ccns3)cc21` [Example 2m, 3-(6-Isothiazol-5-yl-1-methyl-1H-indol-3-yl)-4-(1-methyl-6-nitro-1H-indol-3-yl)pyrrole-2,5-dione] was 10 nM.
For the compound `Cn1cc(C2=C(c3cn(C)c4cc([N+](=O)[O-])ccc34)C(=O)NC2=O)c2ccc(-c3ccsc3)cc21` [Example 6, 3-(1-methyl-6-nitro-1H-indol-3-yl)-4-(1-methyl-6-thiophen-3-yl-1H-indol-3-yl)pyrrole-2,5-dione], the half-inhibitory concentration (IC50) is 40 nM.
On to `Cn1cc(C2=C(c3cn(C)c4cc(-c5nccs5)ccc34)C(=O)NC2=O)c2ccccc21` [Example 4a, 3-(1-Methyl-1H-indol-3-yl)-4-(1-methyl-6-thiazol-2-yl-1H-indol-3-yl)pyrrole-2,5-dione], for which the IC50 is 24 nM.
Take `Cn1cc(C2=C(c3cn(C)c4cc([N+](=O)[O-])ccc34)C(=O)NC2=O)c2ccc(-c3nccs3)cc21` [Example 4c, 3-(1-Methyl-6-nitro-1H-indol-3-yl)-4-(1-methyl-6-thiazol-2-yl-1H-indol-3-yl)pyrrole-2,5-dione]: the IC50 stood at 20 nM.
The value for `Cn1cc(C2=C(c3cn(C)c4cc([N+](=O)[O-])ccc34)C(=O)NC2=O)c2ccc(-n3ccnc3)cc21` [Example 8a, 3-(6-Imidazol-1-yl-1-methyl-1H-indol-3-yl)-4-(1-methyl-6-nitro-1H-indol-3-yl)-pyrrole-2,5-dione] was 30 nM; that for `COCn1cc(C2=C(c3cn(C)c4cc(F)ccc34)C(=O)NC2=O)c2ccc(N3CCOCC3)cc21` [Example 12m, 3-(6-Fluoro-1-methyl-1H-indol-3-yl)-4-(1-methoxymethyl-6-morpholin-4-yl-1H-indol-3-yl)pyrrole-2,5-dione] was 170 nM; that for `Cn1ccnc1-c1ccc2c(C3=C(c4cn(C)c5ccccc45)C(=O)NC3=O)cn(C)c2c1` [Example 4b, 3-(1-Methyl-1H-indol-3-yl)-4-[1-methyl-6-(1-methyl-1H-imidazol-2-yl)-1H-indol-3-yl]-pyrrole-2,5-dione] was 60 nM.
The value for `Cn1cc(C2=C(c3cn(C)c4cc(-n5ccnc5)ccc34)C(=O)NC2=O)c2ccccc21` [Example 7, 3-(6-imidazol-1-yl-1-methyl-1H-indol-3-yl)-4-(1-methyl-1H-indol-3-yl)-pyrrole-2,5-dione] was 60 nM.
The value for `Cc1nccn1-c1ccc2c(C3=C(c4cn(C)c5cc([N+](=O)[O-])ccc45)C(=O)NC3=O)cn(C)c2c1` [Example 8b, 3-[1-Methyl-6-(2-methyl-imidazol-1-yl)-1H-indol-3-yl]-4-(1-methyl-6-nitro-1H-indol-3-yl)-pyrrole-2,5-dione] was 250 nM; that for `Cn1cc(C2=C(c3cn(C)c4cc(N5CCOCC5)ccc34)C(=O)NC2=O)c2ccc(Cl)cc21` [Example 14c, 3-(6-Chloro-1-methyl-1H-indol-3-yl)-4-(1-methyl-6-morpholin-4-yl-1H-indol-3-yl)pyrrole-2,5-dione] was 2 nM; that for `Cn1cc(C2=C(c3cn(C)c4cc(C(F)(F)F)ccc34)C(=O)NC2=O)c2ccc(N3CCCC3)cc21` [Example 14h, 3-(1-Methyl-6-pyrrolidin-1-yl-1H-indol-3-yl)-4-(1-methyl-6-trifuloromethyl-1H-indol-3-yl)pyrrole-2,5-dione] was 80 nM.
For `Cc1ccc2c(C3=C(c4cn(C)c5cc(N6CCOCC6)ccc45)C(=O)NC3=O)cn(C)c2c1` [Example 12b, 3(1,6-Dimethyl-1H-indol-3-yl)-4-(1-methyl-6-morpholin-4-yl-1H-indol-3-yl)pyrrole-2,5-dione], the IC50 was less than 10 nM.
The value for `Cn1cc(C2=C(c3cn(C)c4cc(C(F)(F)F)ccc34)C(=O)NC2=O)c2ccc(N3CCOCC3)cc21` [Example 14e, 3-(1-Methyl-6-morpholin-4-yl-1H-indol-3-yl)-4-(1-methyl-6-trifluoromethyl-1H-indol-3-yl)pyrrole-2,5-dione] was 50 nM.
The value for `Cn1cc(C2=C(c3cn(C)c4cc(N5CCOCC5)ccc34)C(=O)NC2=O)c2ccc(Br)cc21` [Example 14d, 3-(6-Bromo-1-methyl-1H-indol-3-yl)-4-(1-methyl-6-morpholin-4-yl-1H-indol-3-yl)pyrrole-2,5-dione] was 3 nM.
The value for `Cn1cc(C2=C(c3cn(C)c4cc([N+](=O)[O-])ccc34)C(=O)NC2=O)c2ccc(-c3cncnc3)cc21` [Example 18, 3-(1-Methyl-6-nitro-1H-indol-3-yl)-4-(1-methyl-6-pyrimidin-5-yl-1H-indol-3-yl)pyrrole-2,5-dione] was 50 nM; that for `Cn1cncc1-c1ccc2c(C3=C(c4cn(C)c5cc([N+](=O)[O-])ccc45)C(=O)NC3=O)cn(C)c2c1` [Example 1, 3-[1-Methyl-6-(3-methyl-3H-imidazol-4-yl)-1H-indol-3-yl]-4-(1-methyl-6-nitro-1H-indol-3-yl)-pyrrole-2,5-dione] was 5 nM.
Regarding `Cn1nccc1-c1ccc2c(C3=C(c4cn(C)c5cc(Br)ccc45)C(=O)NC3=O)cn(C)c2c1` [Example 2l, 3-(6-Bromo-1-methyl-1H-indol-3-yl)-4-[1-methyl-6-(2-methyl-2H-pyrazol-3yl)-1H-indol-3-yl]pyrrole-2,5-dione], the 50% inhibitory concentration (IC50) was 70 nM.
The value for `Cn1nccc1-c1ccc2c(C3=C(c4cn(C)c5cc([N+](=O)[O-])ccc45)C(=O)NC3=O)cn(C)c2c1` [Example 2j, 3-[1-Methyl-6-(2-methyl-2H-pyrazol-3-yl)-1H-indol-3-yl]-4-(1-methyl-6-nitro-1H-indol-3-yl)pyrrole-2,5-dione] was 20 nM; that for `Cn1cc(C2=C(c3cn(C)c4cc(-c5ccns5)ccc34)C(=O)NC2=O)c2ccccc21` [Example 2n, 3-(6-Isothiazol-5-yl-1-methyl-1H-indol-3-yl)-4-(1-methyl-1H-indol-3-yl)-pyrrole-2,5-dione] was 40 nM.
The value for `Cn1cc(C2=C(c3cn(C)c4cc([N+](=O)[O-])ccc34)C(=O)NC2=O)c2ccc(-n3cccn3)cc21` [Example 8c, 3-(1-Methyl-6-nitro-1H-indol-3-yl)-4-(1-methyl-6-pyrazol-1-yl-1H-indol-3-yl)pyrrole-2,5-dione] was 20 nM; that for `Cn1cc(C2=C(c3cn(C)c4cc([N+](=O)[O-])ccc34)C(=O)NC2=O)c2ccc(-c3ncc[nH]3)cc21` [Example 2o, 3-[6-(1H-Imidazol-2-yl)-1-methyl-1H-indol-3-yl]-4-(1-methyl-6-nitro-1H-indol-3-yl)-pyrrole-2,5-dione] was 40 nM.
In the case of `Cn1cc(C2=C(c3cn(C)c4cc(N5CCOCC5)ccc34)C(=O)NC2=O)c2ccc(F)cc21` [Example 14b, 3-(6-Fluoro-1-methyl-1H-indol-3-yl)-4-(1-methyl-6-morpholin-4-yl-1H-indol-3-yl)pyrrole-2,5-dione], the IC50 is 30 nM.
